# Several values for one entry are separate records, joined by “and”; a condition that tells them apart may be missing. Identical values can stand only once. Counter-ions that a name gives are not always drawn.
# Biological target: T1, human 5-HT7b receptors (Homo sapiens, UniProt P34969)
# T1 construct: expressed in transfected cells; host or cells: HEK293
# Experiment: 5-HT7 competition radioligand binding assay ([3H]5-CT)
# Settings: HEK293 cells overexpressing human 5-HT7b receptors, at least two independent experiments in triplicate, read-out: Ki ± S.D. 5-HT7 binding affinity
# Procedure: Novel scaffold endowed with 5-HT7R activity was identified by screening of the in-house compound library in a single compound concentration of 1 µM in a competition radioligand binding assay using [^3H]5-CT and HEK293 cells overexpressing the human 5-HT7b receptors.
# T1 sequence (P34969 1-432): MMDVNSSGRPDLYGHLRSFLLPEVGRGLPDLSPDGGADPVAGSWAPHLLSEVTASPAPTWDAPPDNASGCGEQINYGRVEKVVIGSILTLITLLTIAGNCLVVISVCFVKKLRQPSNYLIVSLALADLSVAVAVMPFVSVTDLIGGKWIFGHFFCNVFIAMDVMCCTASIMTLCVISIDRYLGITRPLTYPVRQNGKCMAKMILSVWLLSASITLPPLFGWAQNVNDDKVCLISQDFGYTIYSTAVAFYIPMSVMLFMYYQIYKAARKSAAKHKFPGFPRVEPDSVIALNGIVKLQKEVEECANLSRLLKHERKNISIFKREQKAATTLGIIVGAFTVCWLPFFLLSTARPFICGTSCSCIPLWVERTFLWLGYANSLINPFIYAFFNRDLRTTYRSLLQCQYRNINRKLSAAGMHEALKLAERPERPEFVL
row,SMILES,Ki
1,"Cc1occc1-c1ccnc(N2CCN(C)CC2)n1 [Compound 23, 4-(2-Methyl-3-furyl)-2-(4-methylpiperazin-1-yl)pyrimidine]",1920 ± 373 nM
2,"O=C(c1ccccc1)N1CCN(c2nccc(-c3ccoc3)n2)CC1 [Compound 6, 2-(4-Benzoylpiperazin-1-yl)-4-(3-furyl)pyrimidine]",1400 ± 173 nM
3,"Cc1cc(-c2ccco2)cc(N2CCN(C)CC2)n1 [Compound 55, 4-(2-Furyl)-2-methyl-6-(4-methylpiperazin-1-yl)pyridine]",139 ± 22 nM
4,"CCOC(=O)CCN1CCN(c2nccc(-c3ccoc3)n2)CC1 [Compound 9, Ethyl 3-{4-{[4-(3-furyl)pyrimidin-2-yl]piperazin-1-yl}}propanoate]",8.9 ± 2.1 nM
5,CCOC(=O)CCCCCN1CCN(c2nccc(-c3ccoc3)n2)CC1 [Compound 10],1.4 ± 0.3 nM
6,"OCCN1CCN(c2nccc(-c3ccoc3)n2)CC1 [Compound 8, 2-[4-(2-Hydroxyethyl)piperazin-1-yl]-4-(3-furyl)pyrimidine]",8.5 ± 1.1 nM
7,"CN1CCN(c2nccc(-c3ccccc3O)n2)CC1 [Compound 33, 4-(2-Hydroxyphenyl)-2-(4-methylpiperazin-1-yl)pyrimidine]",> 10000 nM
8,"Cc1cc(-c2ccoc2)nc(N2CCN(C)CC2)n1 [Compound 11, 4-(3-Furyl)-6-methyl-2-(4-methylpiperazin-1-yl)pyrimidine]",3.9 ± 0.7 nM
9,"CCCCc1cc(-c2cccs2)cc(N2CCN(C)CC2)c1 [Compound 71, 1-[3-n-Butyl-5-(2-thienyl)phenyl]-4-methylpiperazine]",734 ± 59 nM
10,"CN1CCN(c2cccc(-c3cccs3)c2)CC1 [Compound 69, 1-Methyl-4-[3-(2-thienyl)phenyl]piperazine]",542 ± 66 nM
11,"CCCCc1nc(N2CCN(C)CC2)nc(-c2ccoc2)c1CCC [Compound 22, 4-n-Butyl-6-(3-furyl)-2-(4-methylpiperazino)-5-propylpyrimidine]",1250 ± 116 nM
12,"CN1CCN(c2cccc(-c3ccoc3)n2)CC1 [Compound 57, 6-(3-Furyl)-2-(4-methylpiperazin-1-yl)pyridine]",8 nM and 11 nM

# Same assay, conditions: single compound concentration of 1 µM, HEK293 cells, read-out: inhibition in library screening
row,SMILES,inhibition at 1 µM [%]
1,"Cc1cc(-c2ccoc2)nc(N2CCN(C)CC2)n1 [Compound 11, 4-(3-Furyl)-6-methyl-2-(4-methylpiperazin-1-yl)pyrimidine]",> 60

# System: not given
# Experiment: not given
# Settings: not given
row,SMILES,melting point
1,"Cc1cc(-c2cccs2)cc(N2CCN(C)CC2)n1 (as salt: hydrobromid) [Compound 56, 2-Methyl-6-(4-methylpiperazin-1-yl)-4-(2-thienyl)pyridine]",132 to 134 °C
2,"CN1CCN(c2nc(-c3ccoc3)cc(C(F)(F)F)n2)CC1 (as salt: hydrochloride) [Compound 16, 4-(3-Furyl)-2-(4-methylpiperazin-1-yl)-6-(trifluoromethyl)pyrimidine]",> 300 °C
3,"Cc1occc1-c1ccnc(N2CCN(C)CC2)n1 (as salt: hydrobromid) [Compound 23, 4-(2-Methyl-3-furyl)-2-(4-methylpiperazin-1-yl)pyrimidine]",263 to 265 °C
4,"CCCCCCc1cc(-c2coc(C)c2)nc(N2CCN(C)CC2)n1 (as salt: hydrobromid) [Compound 25, 4-n-Hexyl-6-(5-methyl-3-furyl)-2-(4-methylpiperazin-1-yl)pyrimidine]",242 °C (dec.)
5,"CCc1cc(-c2ccoc2)nc(N2CCN(C)CC2)n1 (as salt: hydrobromid) [Compound 12, 4-Ethyl-6-(3-furyl)-2-(4-methylpiperazin-1-yl)pyrimidine]",287 to 288 °C
6,"CCCCc1nc(N2CCN(C)CC2)nc(-c2ccoc2)c1CCC (as salt: hydrobromid) [Compound 22, 4-n-Butyl-6-(3-furyl)-2-(4-methylpiperazino)-5-propylpyrimidine]",203 °C (dec.)
7,"c1cc(-c2ccoc2)nc(N2CCNCC2)n1 (as salt: hydrobromid) [Compound 1, 4-(3-Furyl)-2-(piperazin-1-yl)pyrimidine]",241 to 242 °C
8,"c1cc(-c2ccoc2)nc(N2CC[N+]3(CCOCC3)CC2)n1 (as salt: iodide) [Compound 47, 4-[4-(3-Furyl)pyrimidin-2-yl]piperazine-1-spiro-1-morpholinium iodide]",> 200 °C (dec.)

# From PMC6272903, “Synthesis and Structure-Activity Relationship Analysis of 5-HT7 Receptor Antagonists: Piperazin-1-yl Substituted Unfused Heterobiaryls” (Molecules, 2016)
